According to a melting point compilation (Tetko et al.; mined from patent text by program, amines drawn as free bases though some values may be those of a salt):

Row | melting point [°C] | Compound
1 | 70.2 to 71.6 | CS(=O)(=O)c1ccc(-c2nn(CCCc3ccccc3)c(=O)cc2-c2ccc(Cl)cc2)cc1
2 | 251 to 254 | CCCCc1oc2ccccc2c1-c1ncc(-c2ccc3cc(OCc4ccc(C(=O)O)cc4)ccc3c2)o1
3 | 91 to 93 | CC(C(=O)O)c1ccc2oc(Cc3ccc(F)cc3)nc2c1 (centres undefined)
4 | 237 to 238 | Cc1cc(C(N)=O)ncc1C(c1c(F)ccc(F)c1F)S(=O)(=O)c1ccc(C(F)(F)F)nc1 (centres undefined)
5 | 109 to 112 | CCCS(=O)c1ccc(N)c([N+](=O)[O-])c1 (centres undefined)
6 | 151 to 152 | CCOC(=O)c1c(C)cc2nc(CO)n(-c3ccccc3Cl)c(=O)c2c1C
7 | 190 to 192 | CCc1nc2c(N)nc(C)c(C)c2n1NC1CCCCC1
8 | 79 to 81 | CCOC(=O)c1cc(=O)c(Sc2ccccc2)co1
9 | 128 to 131 | O=C(C[C@@H](O)C(=O)O)c1ccccc1
10 | 254 to 256 | CC(=O)c1c2c(c(C)[nH]c1=O)CC(c1ccccn1)CC2 (centres undefined)
11 | 119 to 120 | COc1ccc(CCN2CCC(C(=O)c3nc4ccccc4s3)CC2)cc1
12 | 93 | CC1(C)COc2cc(F)c(F)cc2C(O)(c2ccccn2)C1 (centres undefined)
13 | 58 to 59 | COc1cc2c(cc1Br)[C@@H](O)[C@H](Br)C(C)(C)O2 (relative stereo)
14 | 112 to 114 | O=C(c1ccc([N+](=O)[O-])cc1Cl)N1CCCCc2ccccc21
15 | 180 to 181 | CCc1cn(C2OC(CO)C(O)C2O)c(=O)[nH]c1=O (centres undefined)
16 | 173 to 175 | C=Cc1ccc(CSC(CC(=O)O)C(=O)O)cc1 (centres undefined)
17 | 204 to 208 | Cc1ccc(CC2CCN(C(=O)NC(=O)c3ccc(OCc4ccccc4)cc3)CC2)cc1
18 | 58 to 60 | Cc1cc2c(cc1N1CCCCCC1)OC(=O)C2C (centres undefined)
19 | 114 | CCN(CC)CCN(c1cc(OC)c(C)cc1[N+](=O)[O-])S(=O)(=O)c1ccc(C)cc1
20 | 147 to 148 | CNC(=S)C1=CC(C)(C)Oc2ccc([N+](=O)[O-])cc21
21 | 94 to 96 | CCCCCCCC1=CC(=O)N(Cc2ccccc2)C1(O)CBr (centres undefined)
22 | 33 to 34 | CCCCCCCCCCOc1ccc(OCCCC#CCOC)cc1
23 | 119 to 121 | CCCc1c(O)c(C(C)=O)cc(Cl)c1OCCCOc1c(C(C)=O)ccc(OCC(=O)O)c1CCC
24 | 130 | C=C=CS(=O)(=O)c1ncc(Cl)cn1
25 | > 220 | CC(NC(=O)Cc1cc(F)cc(F)c1)C(=O)NC1CCCCCNC(=O)C1 (centres undefined)

Row | melting point [°C] | Compound
26 | 100 | O=C1C(c2ccccc2)N(c2ccc(Oc3ccccc3)cc2)C(=S)N1c1ccccc1 (centres undefined)
27 | 137 to 139 | COc1cccc(N2CCN(c3ccc(S(=O)(=O)N[C@@H](Cc4ccccc4)C(=O)O)cc3)CC2)c1
28 | 325 to 326 | CC(C)(C)c1ccc(Sc2cc(C(=O)O)ccc2C(=O)O)cc1
29 | 130 | CC(C)(C)c1csc(NC(=O)c2ccccc2)c1C#N
30 | 92 to 93 | CCOC(=O)Cc1ccc(-c2cn3ccccc3n2)cc1
31 | 131 to 132 | CCC1(CC)OC(c2ccc(S(C)(=O)=O)cc2)=C(c2cccc(Cl)c2)C1=O
32 | 98 to 99 | CCC(SCC(=O)O)c1cc2c(cc1C)OCO2 (centres undefined)
33 | 137 to 139 | CCOC(=O)C1[C@@H]2[C@@H](O)[C@@H]3O[C@H](c4ccccc4)OC[C@H]3O[C@H]12 (some centres undefined)
34 | 147 to 150 | CC(N)Oc1cccc2c1ccn2S(=O)(=O)c1ccccc1F (centres undefined)
35 | 254 to 255 | Cc1cn(-c2ccc3nc(NC(=O)c4ccc(C(C)(C)C)cc4)cn3n2)c(C)n1
36 | 159 to 163 | COC1=C(OC)C(=O)C2=C(CCC(CCn3cnc4ccccc43)CC2)C1=O
37 | 154 to 156 | FC(F)(F)c1ccc2nc3c(nc2c1)OCC1CCCCN31 (centres undefined)
38 | 62 to 63 | O=Cc1cc(-c2ccc(Cl)cc2Cl)ccc1OC(F)(F)F
39 | 96 to 97 | CC(C)OC(=O)Cc1nc(-c2ccc(Cl)cc2)oc1-c1ccco1
40 | 178 to 180 | CCCCC(=O)NCCc1ccc(S(=O)(=O)NC(=O)c2ccc(C(=O)OC)nc2)cc1
41 | 200 to 206 | CN(C)c1nc(-c2ccc3c(c2)OCO3)c2cc3c(cc2n1)OCO3
42 | 155 to 156 | COc1cc(C=CC(=O)c2ccc(N(C)C)cc2)cc(OC)c1
43 | 133 | CC(=O)c1ccc(N2CCC(N(C)Cc3ccc(F)cc3)CC2)cc1
44 | 25 | C[Si](C)(C)c1cc(CCC(=O)O)co1
45 | 134 to 136 | CN1CCN(C(=O)c2ccc3n2Cc2ccccc2N(C(=O)c2ccc(C4CCCCC4)cc2)C3)CC1
46 | 188 to 190 | O=C1CC(C(=O)O)NN1 (centres undefined)
47 | 66 | O=C(Cc1ccccc1Nc1c(Cl)cccc1Cl)OCI
48 | > 250 | O=C(NCc1ccn(C2=CC3=C(CC2)CCc2[nH]c(=O)c(=O)n(O)c23)c1)Nc1ccccc1
49 | 180 to 181 | CNc1cc(F)ccc1C(=O)O
50 | 62 to 64 | CC1=CCCC2C1(C)CCC(C)C2(C)CC1=CC(=O)C=CC1=O (centres undefined)

Row | melting point [°C] | Compound
51 | 180 to 181 | O=S(=O)(Nc1cccc2c(Cl)c[nH]c12)c1cccc(Cl)c1
52 | 93 to 94 | CCCCCCCCCCCC(=O)N[C@H]1CCCNC(=O)C1
53 | 84.5 | CCOc1ccc(C=CC(=O)c2c(OCC)cc(OCC)cc2OC(=O)CC)cc1
54 | 71 to 72.5 | COc1cc(OC)nc(Oc2ccccc2C(=O)ON(C)C)n1
55 | 86 to 88 | CN(Cc1ccccc1)Cc1c(-c2ccccc2)sc(N)c1C(=O)c1ccc(Cl)cc1
56 | 100 to 102 | CNC(=O)C(=NOC)c1cccc(Cl)c1COc1ccc(Sc2ccc(C)cc2)cn1
57 | 110 | N#Cc1ccn2c1CSC2c1cccnc1 (centres undefined)
58 | 223 | O=C(C=Cc1ccccc1)N1CCc2c([nH]c3ccccc23)C1c1ccc2c(c1)CCC2 (centres undefined)
59 | 190 to 192 | Cc1c(NC(=O)c2ccc(-c3ccc(Cl)cc3)c(F)c2)ccc2cc(CN3CCCC3)cnc12
60 | 102 to 103 | O=C(c1ccccc1)C(Cc1ccccc1)C(=O)c1ccccc1
61 | 124 to 125 | O=C(c1ncco1)c1ccc([N+](=O)[O-])cc1Cl
62 | 189 to 190 | N#CCCNC(=O)c1cccc(-c2ccc3c(c2)N(c2cc(Cl)ccc2Cl)CC3)c1
63 | 142 to 144 | COC(=O)CCSc1c(C(N)=O)sc2ccc(OC)cc12
64 | 236 to 238 | CC1(C)OC(=O)Nc2ccc(-c3coc(C=NO)c3)cc21
65 | 150 | CCOP(=O)(OCC)c1ccc(Oc2ccccc2[N+](=O)[O-])cc1
66 | 100 | CC1(C)COc2cc(Cl)c(F)cc2C(O)(c2ccccn2)C1 (centres undefined)
67 | 121 to 122 | O=C(O)C(=O)c1ccc(OCCCCCCOc2ccccc2)cc1
68 | 196 to 198 | COC(=O)N(CC(=O)Nc1ccc(S(N)(=O)=O)cc1Cl)c1ccccc1
69 | 86 to 88 | CCC(=O)C1=C(O)CC(c2c(C)cc(C)cc2C)CC1=O (centres undefined)
70 | 84 to 89 | CCC1(CC)C(=O)N(C(C)C)CC(C)(C)N1OC(C)(C)C#N
71 | 121 to 122 | O=C(CCCl)NCc1ccc2ccn(C3CCN(CCc4ccc(F)cc4)CC3)c2c1
72 | 222 to 224 | Cn1c(=O)c2c(nc(Cl)n2Cc2ccccc2C#N)n(C)c1=O
73 | 229 to 230 | COc1cccc(-c2nc3n(n2)Cc2cc(Cl)ccc2-3)c1
74 | 160 to 162 | O=c1cc(-c2cccs2)oc2cccc(OCCO)c12
75 | 116 | CCOc1cc(C)nc(-n2ccnc2)n1

Row | melting point [°C] | Compound
76 | 110 to 112 | CNS(=O)(=O)c1cc(OC)c(OC)c(C(=O)NCC2CCCN2CC2CC2)c1 (centres undefined)
77 | 162 to 164 | CC1CCC(=O)N1c1cc(-c2ccnc(Nc3cccc(Cl)c3)n2)ccn1 (centres undefined)
78 | 69 to 70 | COC(=O)COc1ccc(I)cc1
79 | 130 to 131 | O=[N+]([O-])c1ccc(Cl)c(C2SCCS2)c1
80 | 68 to 70 | CN1CCN(C(=O)NC(CS)Cc2ccccc2)CC1 (single isomer, unassigned; (-))
81 | 149 to 150 | O=C(O)Cc1cccc(F)c1OCCCc1cn(-c2ccc(C(F)(F)F)cn2)nc1C1CCCCC1
82 | 79 | O=C(O)CCc1cc2nc(Cl)ccc2n1S(=O)(=O)c1ccc2c(c1)CCN2
83 | 140 to 145 | C=CCNc1cc(C(=O)OCC)nc2cn[nH]c12
84 | 53 to 61 | OC(c1ccccc1)c1cc2ccnc(N(Cc3ccccc3)Cc3ccccc3)c2[nH]1 (centres undefined)
85 | 209 to 211 | COc1cc(C(C)C)c2oc3ccccc3c2c1C(=O)Nc1c(Cl)cncc1Cl
86 | 182 to 184 | O=C(O)COc1ccc2c(-c3ccccc3F)noc2c1
87 | 257 | CCCCCCCCC(C)(C)c1cc(=O)c2cc(O)ccc2o1
88 | 118 | NC(=O)Oc1cccc2ccccc12
89 | 219 to 221 | Sc1nnc(-c2ccc3c(c2)CCO3)o1
90 | 101 | COc1cccc(Oc2ccc(C(=O)N(C(C)C)C3CCCCC3)cc2)c1
91 | 122 to 124 | COc1ccc(Cn2nnc(-c3cccc(C(=O)Cl)c3)n2)cc1
92 | 248 to 252 | Nc1c(Br)cc(S(N)(=O)=O)cc1C(F)(F)F
93 | 157 to 158 | NC(=O)C(CCCCCCCCCCCCC(C(N)=O)C1CC1)C1CC1 (centres undefined)
94 | 274 to 276 | O=C1CCC(=O)N1c1nc(Nc2ccc(O)c(Cl)c2)cc(-c2ccccc2)n1
95 | 210 to 211 | Cc1nn(-c2ccccn2)c2nc3ccccc3c(C#N)c12
96 | 143 to 150 | CN1CCN(Cc2ccc(-c3cc4ncnc(Nc5ccc6[nH]ccc6c5)c4s3)cc2)CC1
97 | 131 to 133 | O=C(CCCN1CCN(c2ccc(CO)c(Cl)c2)CC1)c1cccs1
98 | 70 to 71 | COc1ccc(C=CCO)cc1OC

Row | Compound | melting point [°C]
99 | NC(=O)C(CCO)N1CCCC1=O (centres undefined) | 164 to 165
100 | COC(=O)c1ccc(CCl)nc1 | 63.5 to 63.8
101 | CC(C)NC(=O)C(Cl)Cl | 45 to 48
102 | CN(c1cc(F)c(C#N)cc1F)c1nnnn1-c1ccc(F)cc1 | 162
103 | Cn1ncc(N2CCNCC2)c(Cl)c1=O | 83 to 87
104 | COC(=O)C#Cc1c(C#N)nn(-c2c(Cl)cc(C(F)(F)F)cc2Cl)c1N | 201 to 202
